Assay [1] has as its system gastric antrum of conscious dogs. Nature of the assay: Gastric antral motility by implanted force transducers, fasted conscious dogs, oral dosing. The class given is in vivo, dog. On the procedure: (§1) GI motility was assessed by processing the signals from the force transducers implanted in dogs prepared for investigation of motility. Briefly, dogs were anesthetized with isoflurane and the abdominal cavity was opened under aseptic conditions. Extraluminal force transducers (F-12IS, Star Medical, Tokyo) were sutured onto the seromuscular layer of the gastric antrum, the gastric body, the duodenum, and the proximal colon. After the surgery, protective jackets were placed on the dogs and they were housed in individual cages. The dogs were fasted overnight before the experiment and placed in the shield room. The motility was measured with a telemetry system (GTS-800, Star Medical, Tokyo) and data acquired into a personal computer with the acquisition software (Eight Star, Star Medical, Tokyo). After confirmation of interdigestive migrating complex (IMC), the test drugs were administered orally. Gut motility was then recorded more than 5 hours (hrs). To measure the gastric motility quantitatively, motor indexes that represent areas of contractions were calculated. The signals from the force transducer were acquired on a personal computer and analyzed by processing software (Analyze II; StarMedical). In the fasted state, the areas surrounded by the contraction curve and the baseline were determined every 2 hrs after administration. For standardization, the calculated areas were divided by the IMC peak height before administration, and they were used as the motor index (MI). Results are presented as the mean+/− standard error of the mean (S.E.M., N=4-5). Statistical analysis was performed with Dunnett's multiple comparison test using GraphPad Prism (GraphPad Software, Inc.).

The test system of assay [2] is proximal colon of conscious dogs. Put plainly: Proximal colon motility by implanted force transducers, fasted conscious dogs, oral dosing. The note with it: dog. The assay is classed as in vivo. On the procedure: as §1
Assay [3] has as its system gastric antrum and duodenum of conscious dogs. Put plainly: Gastro-duodenum contractions by implanted force transducers, fasted conscious dogs, oral dosing. The class given is in vivo. The settings on record: dog, 0.3 mg/kg (dose that enhances proximal colon motility), FIG. 5.
Description: GI motility was assessed by processing the signals from the force transducers implanted in dogs prepared for investigation of motility. Briefly, dogs were anesthetized with isoflurane and the abdominal cavity was opened under aseptic conditions. Extraluminal force transducers (F-12IS, Star Medical, Tokyo) were sutured onto the seromuscular layer of the gastric antrum, the gastric body, the duodenum, and the proximal colon. After the surgery, protective jackets were placed on the dogs and they were housed in individual cages. The dogs were fasted overnight before the experiment and placed in the shield room. The motility was measured with a telemetry system (GTS-800, Star Medical, Tokyo) and data acquired into a personal computer with the acquisition software (Eight Star, Star Medical, Tokyo). […] Gut motility was then recorded more than 5 hours (hrs). To measure the gastric motility quantitatively, motor indexes that represent areas of contractions were calculated. The signals from the force transducer were acquired on a personal computer and analyzed by processing software (Analyze II; StarMedical). In the fasted state, the areas surrounded by the contraction curve and the baseline were determined every 2 hrs after administration. For standardization, the calculated areas were divided by the IMC peak height before administration, and they were used as the motor index (MI). […]

The structures appear in SMILES notation.

Regarding `COc1cc(N)c(Cl)cc1C(=O)NC1CCN(CCCOc2ccc(F)cc2)CC1OC` (stereo not drawn) [Cisapride, cisapride], in assay [1] (dog, fasted, oral, 1 mg/kg, FIG. 2), the gastric antral motility entry is given as “significantly increased gastric antral motility”.
In the case of `O=C(O)C1(CN2CCC(COc3noc4cccc(OCC(F)(F)F)c34)CC2)CCOCC1` [Compound A, 4-{[4-({[4-(2,2,2-trifluoroethoxy)-1,2-benzisoxazol-3-yl]-oxy}methyl)piperidin-1-yl]methyl}tetrahydro-2H-pyran-4-carboxylic acid], in assay [2] (1 micro g/kg, FIG. 4), the “amplitude and frequency of contractions in the proximal colon” value is “enhanced”. Moreover, in assay [2] (after treatment), the “occurrence of giant migrating contractions” value is reported as “facilitated the occurrence of giant migrating contractions”. Also, in assay [1] (dog GI motility models), the “effects on GI motility / potency relative to other 5-HT4 agonists (cisapride, mosapride, tegaserod)” value is given as “more than 100 times”. Moreover, the “potency relative to cisapride in enhancing gastric antral motility” value in assay [1] (dog, fasted, oral) is “approximately 1000 times”. In addition, the “minimum effective dose, change in motor index (MI) of gastric antral motility” value in assay [1] (dog, fasted, oral, 0 to 2 hour period after administration, statistical significance (Dunnett)) turned out to be 1 micro g/kg. Besides, in assay [1] (dog, fasted, oral, 0.1-10 micro g/kg, FIG. 1), the “gastric antral motor activity” value is listed as “increased the gastric antral motor activity in dose dependent manner”.
On to `CCOc1cc(N)c(Cl)cc1C(=O)NCC1CN(Cc2ccc(F)cc2)CCO1` (stereo not drawn) [mosapride], for which the gastric antral motility result in assay [1] (dog, fasted, oral, 3 mg/kg, FIG. 3) is “tended to increase the antral motility”.
Turning to `COCCCN1CCC(NC(=O)c2cc(Cl)c(N)c3c2OCC3)CC1` [prucalopride], the “contractions of proximal colon” value in assay [2] (0.1 mg/kg, FIG. 5) is recorded as “did not affect contractions of proximal colon”. In addition, the colonic motor activity result in assay [2] (0.3 mg/kg, FIG. 5) is on record as “enhanced the colonic motor activity”. For the same compound, in assay [1] (dog, fasted, oral, 0.1 mg/kg, FIG. 5), the gastric antral motility entry was “stimulated gastric antral motility”. In assay [3], the gastro-duodenum contractions entry was “induced excessive gastro-duodenum contractions”.

The values above are taken from US10137113B2, “5-HT4 receptor agonist as a prokinetic agent” (RaQualia Pharma Inc., priority 2011, dated 2018).
